These results are taken from paper PMC8482274, “Inadequate Cerebrospinal Fluid Concentrations of Available Salvage Agents Further Impedes the Optimal Treatment of Multidrug-Resistant Enterococcus faecium Meningitis and Bacteremia” (Infectious Disease Reports, 2021).

≈ marks a conversion by molar mass, not a printed value. Where two headings read alike, the source gives them in different places. Numbered stars: 1 amine (or outer) side, 2 acyl side, 3 side chain; on linkers, the order of the positions; unused ones are H or OH. Bridge positions count the residues as written; N and C are the ends. Square brackets hold non-standard residues; d marks the D form. Peptide text beside a SMILES is read from it. * marks the point of attachment. X1 = O=C1C[C@@H](C(=O)[*:2])N([*:1])C[C@H]1CS[C@@H]1CN2CCC1CC2; NMePhe(4-NMe2) = CN[C@@H](Cc1ccc(N(C)C)cc1)C(=O)O; Picolinoyl(3-OH) = O=C(c1ncccc1O)*; Phg = N[C@H](C(=O)O)c1ccccc1; dAbu = CC[C@@H](N)C(=O)O

The conditions of series [1]: cited from earlier work.
In a further series the test system is VREf isolates. The series is described as follows: microbe, parasite or virus in culture. As to conditions: for MIC: modal MIC of triplicate, CLSI guidelines. How it is done:
(§1) Initial organism identification and susceptibility determination were performed via MALDI-TOF MS (Bruker Daltonics, Billerica, MA, USA) and MicroScan Walkaway (Beckman Coulter, Brea, CA), respectively, in the clinical microbiology laboratory. Pure colonies of the VREf isolates cultured from the CSF on hospital days 33 and 57 and from blood on days 35 and 52 were sub-cultured to BD BBL chocolate II agar slants (Becton, Dickinson and Company, Sparks, MD, USA) and shipped immediately overnight to the research laboratory where all subsequent testing was performed. Identification and resistance marker detection was confirmed via the Verigene Gram-positive blood culture assay (Luminex, Northbrook, IL, USA).
Minimum inhibitory concentrations were determined in triplicate according to CLSI guidelines. Modal MIC values are reported.

A short description of series [2]: CSF drug concentrations from day 57 lumbar puncture by LC-MS/MS. As to conditions: one patient, systemic dosing at steady state, LLOQ 0.001 mg/L, mean of two CSF tubes, time after last dose: gentamicin 77:30, oritavancin 46:54, tigecycline 8:27, tedizolid 8:25, quinupristin/dalfopristin 2:00 h:m. How it is done:
(§2) CSF samples were immediately frozen at −80 °C and shipped overnight on dry ice. […] Results are presented as the mean (±SD) of the two measured CSF concentrations. Additionally, estimated corresponding unbound plasma concentrations at the time of CSF collection were extrapolated for each agent from published pharmacokinetic data in order to establish an estimate of the degree of CSF/plasma penetration. This % CSF/plasma penetration was then utilized to predict the maximum post-dose CSF concentration on the basis of the peak free plasma concentration (fCmax) and the time of fCmax (Tmax) of each agent. Finally, these predictions were evaluated against published data, all of which were restricted to animal studies except for tigecycline.

Series [3] can be described thus: Estimated unbound plasma concentration, CSF/plasma penetration and projected maximum CSF concentration extrapolated from published pharmacokinetic data. Particulars: for CSF/plasma ratio: this patient. The protocol:
as §2

Series [4] concerns VREf isolate cultured from the CSF on hospital day 33. As to the kind of experiment: Time-kill experiments. As to conditions: at mean measured CSF concentration; triplicate. It counts as cell-based, Enterococcus faecium.
Method: Next, the 5 drugs were tested in combination at their respective extrapolated maximal CSF concentration as described.
Details of series [5]: method as in PMID 11408247. Particulars: animal study; cited from earlier work.
For series [6] the following is noted: cited from earlier work. From the text:
Almost exactly 2 days had elapsed between the time of the patient’s last oritavancin dose and the time of CSF collection.
This is another data set of the same source.

The conditions of series [7]: cited from earlier work. This is another data set of the same source.
For another series, the system named is VREf. As to the kind of experiment: microbe, parasite or virus in culture. It counts as cell-based, Enterococcus faecium. The protocol: as §1
On the set-up of series [8]: method as in PMID 31295511. As to conditions: average in uninfected rats; cited from earlier work.
Details of series [9]: method as in PMID 16982782, PMID 17043116, PMID 21585240, PMID 25216547. As to conditions: cited from earlier work.
Where [10] appears, read: Enterococcus faecium, VREf isolate from CSF, hospital day 57.
Setting [11] is: Enterococcus faecium, VREf isolate from blood, hospital day 52.
[12] abbreviates: VREf isolate from CSF, hospital day 57, CLSI M100-S30 unless footnoted.
Setting [13] is: VREf isolate from blood, hospital day 52, CLSI M100-S30 unless footnoted.
Setting [14] is: Enterococcus faecium, VREf isolate from CSF, hospital day 33.
Where [15] appears, read: Enterococcus faecium, VREf isolate from blood, hospital day 35.
Where [16] appears, read: VREf isolate from CSF, hospital day 33, CLSI M100-S30 unless footnoted (b: CLSI vancomycin-susceptible E. faecalis; c: FDA E. faecalis; d: EUCAST v.10.0 E. faecium).
Where [17] appears, read: VREf isolate from blood, hospital day 35, CLSI M100-S30 unless footnoted.

Take `CC[C@H]1NC(=O)[C@@H](NC(=O)c2ncccc2O)[C@@H](C)OC(=O)[C@H](c2ccccc2)NC(=O)[C@@H]2CC(=O)[C@H](CS[C@@H]3CN4CCC3CC4)CN2C(=O)[C@H](Cc2ccc(N(C)C)cc2)N(C)C(=O)[C@@H]2CCCN2C1=O` [Quinupristin] ({Picolinoyl(3-OH)}-T[dAbu]P[NMePhe(4-NMe2)][X1][Phg]; ester 1-C): the “Published % CSF/Plasma Penetration” value in [1] (rabbit, in vivo) was 0 [23, 27] %.

Regarding `CN[C@H](CC(C)C)C(=O)N[C@H]1C(=O)N[C@@H](CC(N)=O)C(=O)N[C@H]2C(=O)N[C@H]3C(=O)N[C@H](C(=O)N[C@H](C(=O)O)c4cc(O)cc(O)c4-c4cc3ccc4O)[C@H](O[C@H]3C[C@](C)(N)[C@@H](O)[C@H](C)O3)c3ccc(c(Cl)c3)Oc3cc2cc(c3O[C@@H]2O[C@H](CO)[C@@H](O)[C@H](O)[C@H]2O[C@H]2C[C@](C)(NCc3ccc(-c4ccc(Cl)cc4)cc3)[C@@H](O)[C@H](C)O2)Oc2ccc(cc2Cl)[C@H]1O` [Oritavancin], the MIC with VREf isolates (VREf isolate from CSF, hospital day 33) stood at 0.25 µg/mL; in the series with VREf isolates (VREf isolate from CSF, hospital day 57) it was 0.25 µg/mL; with VREf isolates (VREf isolate from blood, hospital day 35), 0.25 µg/mL; in the series with VREf isolates (VREf isolate from blood, hospital day 52) it was 0.25 µg/mL. Besides, the “Mean (±SD) Measured CSF Concentration” value in series [2] was 0.013 ± 0.005 mg/L. Also, the “projected maximal CSF concentration at plasma Tmax” value (from here on “projected maximal CSF concentration”) in series [3] (point estimate) is 0.014 mg/L. The CSF/plasma ratio in series [3] (point estimate) is on record as 0.07%. In addition, the “bacterial growth (increase) at 24 h compared to the starting inoculum” value in series [4] came out at 0.69 log10 CFU/mL. Further, in series [5], the “Published % CSF/Plasma Penetration” value is 1–5 [26] %. Moreover, the fCmax in series [6] (plasma, after a 1200 mg dose, published pharmacokinetic data, ref not given) is listed as 20.7 mg/L. For the same compound, in [6] (plasma, published pharmacokinetic data, ref not given), the half-life is 245 h.

With `CN(C)[C@@H]1C(O)=C(C(N)=O)C(=O)[C@@]2(O)C(O)=C3C(=O)c4c(O)c(NC(=O)CN5CCCC5)cc(F)c4C[C@H]3C[C@@H]12` [Eravacycline], the MIC in the series on VREf isolates (setting [10]) and with VREf isolates (setting [11]) was 0.12 µg/mL in each case. Moreover, the “Interpretive Category” value in the series on VREf isolates (setting [12]) and with VREf isolates (setting [13]) was “S” throughout. For the same compound, the CNS penetration result in series [1] (rabbits) is “virtually zero”.

`CN(C)c1cc(NC(=O)CNC(C)(C)C)c(O)c2c1C[C@H]1C[C@H]3[C@H](N(C)C)C(O)=C(C(N)=O)C(=O)[C@@]3(O)C(O)=C1C2=O` [Tigecycline]: the MIC with VREf isolates (setting [14]), in the series on VREf isolates (setting [10]), in the series on VREf isolates (setting [15]) and with VREf isolates (setting [11]) was 0.25 µg/mL throughout. Further, the “Interpretive Category” value in the series with VREf isolates (setting [16]), with VREf isolates (setting [12]), with VREf isolates (setting [17]) and in the series with VREf isolates (setting [13]) was “S” each time. In [3] (in vivo), the “projected maximal CSF concentration” value is recorded as “approximately 0.197 mg/L”. Besides, the CSF/plasma ratio in [3] (point estimate) is 65.5%. Also, the half-life result in series [6] (in vivo) is “≈ 30 h”. Further, the penetration ratios in series [7] (a patient with cerebritis due to Acinetobacter) is 7–36%. Besides, in series [7] (human, in vivo), the “Published % CSF/Plasma Penetration” value was 5–41 [21, 22] %.

In the case of `CC(=O)NC[C@H]1CN(c2ccc(N3CCOCC3)c(F)c2)C(=O)O1` [Linezolid], the MIC with VREf isolates (setting [14]) amounted to 16 µg/mL; with VREf isolates (setting [10]), 16 µg/mL; in the series with VREf isolates (setting [15]), 16 µg/mL; with VREf isolates (setting [11]) it was 16 µg/mL; against VREf (Enterococcus faecium, VREf blood isolate returning after 11 days of daptomycin therapy, daptomycin by broth microdilution), 2 µg/mL (≈ 5.93 µM). Also, the “Interpretive Category” value in the series on VREf isolates (setting [16]), in the series on VREf isolates (setting [12]), in the series with VREf isolates (setting [17]) and in the series with VREf isolates (setting [13]) was “R” in each case. In addition, the “local laboratory susceptibility result” value in the series with VREf (VREf blood isolate of hospital day 22) is on record as “resistance”. For the same compound, the susceptibility category entry with VREf (VREf blood isolate returning after 11 days of daptomycin therapy) was “susceptible”. Besides, the CSF penetration in series [7] (human, in vivo) is given as 66–85%.

`CCN(CC)CCS(=O)(=O)[C@@H]1CCN2C(=O)c3coc(n3)CC(=O)C[C@H](O)/C=C(C)/C=C/CNC(=O)/C=C/[C@@H](C)[C@@H](C(C)C)OC(=O)[C@@H]12` [Dalfopristin]: in series [1] (rabbit pneumococcal meningitis data), the “Published % CSF/Plasma Penetration” value was 0 [23, 27] %.

Turning to `Cn1nnc(-c2ccc(-c3ccc(N4C[C@H](CO)OC4=O)cc3F)cn2)n1` [Tedizolid], the MIC in the series with VREf isolates (setting [14]), in the series with VREf isolates (setting [10]), in the series on VREf isolates (setting [15]) and with VREf isolates (setting [11]) was 2 µg/mL in each case. The “projected maximal CSF concentration” value in [3] (in vivo) is listed as “roughly 0.3 mg/L”. The CSF/plasma ratio entry in series [3] (point estimate) was “approximately 50%”. In addition, in series [8], the “Published % CSF/Plasma Penetration” value is 2.2 [16] %. The half-life in series [6] (in vivo, iv) is given as 12 h. The “steady-state plasma fCmax” value in series [6] (in vivo, iv) is 0.6 mg/L. Besides, the protein binding in series [9] was 80%.

By half-life is commonly meant how long it takes for the measured level to halve.
